Source: patent US20260224658A1, “PRODUCTS AND METHODS FOR THE DIAGNOSIS AND TREATMENT OF P[…]” (priority 2023, published 2026)
≈ marks a conversion by molar mass, not a printed value. Where a SMILES comes first, the peptide text is derived from it. [ ]: non-standard residue; d: D form.

What was measured:
[1] = tested on: wild type P. aeruginosa (PAO1); details: reference 23; cited from earlier work
MPAO1 [2] = assay: In vitro adaptive evolution (serial passaging) with MIC determination; assay type: cell-based, Pseudomonas aeruginosa; details: for MIC: Pseudomonas aeruginosa
Protocol: (§1) MICs were determined via microbroth dilution assay in 96-well culture plates with 2-fold serial dilutions of tested antibiotic in Mueller-Hinton (cation-adjusted) broth, inoculated with 50 μL of 2.75×10^5 CFU/mL of each bacterial strain and incubated at 37° C., 200 rpm for 24 hours. MIC experiments were performed using biological triplicates.
(§2) Serial passaging of bacterial strains was performed in 96-well culture plates with 2-fold serial dilutions of antibiotic in MH broth, inoculated with 50 μL 2.75×10^5 CFU/mL of each strain and incubated at 37° C., 200 rpm for 24 hours. […] The bacteria were then serially passaged in the same antibiotic and MIC determined for all antibiotics (aztreonam, ciprofloxacin, D-CONGA, D-CONGA-Q7, polymyxin B). See Antimicrobial susceptibility testing section. The bacteria were serially passaged a total of 10 times.
(§3) All resistance acquisition data was analyzed in units of fold-change to normalize for differences in starting MIC across strains. Fold-change in MIC data for all strains and treatment groups was natural log-transformed and simple linear regression was performed considering each replicate fold-change value as an individual point. Slope, standard error of slope, and total number of values of each treatment group of interest were analyzed via unpaired t-test (ΔmutS vs WT) or ordinary one-way ANOVA (cross-resistance acquisition of ΔmutS+AB vs −AB vs WT), and α-values were corrected for multiple comparisons using the Bonferroni method. Differences in estimated mutation rate across treatment groups were determined via ordinary one-way ANOVA (Brown-Forsythe test). For all statistical tests, p<0.05 was considered significant. All figures were created and statistical tests were done using GraphPad Prism 9.3.1.

MPAO1-ΔmutS [3] = assay: as above; assay type: cell-based, Pseudomonas aeruginosa; details: for MIC: Pseudomonas aeruginosa
Protocol: as §1, §2, §3

[4] = tested on: drug-resistant clinical isolates of Staphylococcus aureus, Klebsiella pneumoniae, Acinetobacter baumannii, and P. aeruginosa; details: in vitro and in vivo, reference 23; cited from earlier work
MPAO1 [5] = assay: microbe, parasite or virus in culture; assay type: cell-based, Pseudomonas aeruginosa; details: Pseudomonas aeruginosa; strain MPAO1; read-out: MIC, average of triplicates
Protocol: (§4) MIC experiments were performed using biological triplicates.

PAO1 = assay: microbe, parasite or virus in culture; assay type: cell-based, Pseudomonas aeruginosa; details: Pseudomonas aeruginosa; strain PAO1; read-out: MIC, average of triplicates
Protocol: as §4

MPAO1-ΔmutL [6] = assay: MIC, microbroth dilution assay; assay type: cell-based, Pseudomonas aeruginosa; details: Pseudomonas aeruginosa, read-out: MIC, average of triplicates
Protocol: as §4

MPAO1-ΔmutS [7] = assay: MIC, microbroth dilution assay; assay type: cell-based, Pseudomonas aeruginosa; details: Pseudomonas aeruginosa, read-out: MIC, average of triplicates
Protocol: as §4

MPAO1-ΔmutL [8] = assay: In vitro adaptive evolution (serial passaging) with MIC determination; assay type: cell-based, Pseudomonas aeruginosa; details: Pseudomonas aeruginosa
Protocol: as §1, §2, §3

[9] = MPAO1-ΔmutS evolved in the named drug

CC(C)C[C@@H](NC(=O)[C@@H](CCCNC(=N)N)NC(=O)[C@@H](CCCNC(=N)N)NC(=O)[C@@H](C)NC(=O)[C@@H](Cc1c[nH]c2ccccc12)NC(=O)[C@@H](CCCNC(=N)N)NC(=O)[C@H](N)CCCNC(=N)N)C(=O)N[C@H](C)C(=O)N[C@H](Cc1ccccc1)C(=O)N[C@H](C)C(=O)N[C@H](Cc1ccccc1)C(=O)N[C@H](CCCNC(=N)N)C(=O)N[C@H](CCCNC(=N)N)C(N)=O [D-CONGA] (H-[dR][dR][dW][dA][dR][dR][dL][dA][dF][dA][dF][dR][dR]-NH2; N-terminus and C-terminus assumed)
induction of resistance [1]: has not been observed | fold-change relative to starting MIC before treatment (MPAO1 [2]; MPAO1 evolved in AZ): 1.2 | fold-change relative to starting MIC before treatment (MPAO1 [2]; MPAO1 evolved in AZ + COL): 1 | fold-change relative to starting MIC before treatment (MPAO1 [2]; MPAO1 evolved in AZ + D-CONGA): 1.2 | fold-change relative to starting MIC before treatment (MPAO1 [2]; MPAO1 evolved in AZ + D-CONGA-Q7): 1.2 | fold-change relative to starting MIC before treatment (MPAO1 [2]; MPAO1 evolved in COL): 1 | fold-change relative to starting MIC before treatment (MPAO1 [2]; MPAO1 evolved in D-CONGA): 1 | fold-change relative to starting MIC before treatment (MPAO1 [2]; MPAO1 evolved in D-CONGA-Q7): 1.4 | fold-change relative to starting MIC before treatment (MPAO1 [2]; MPAO1 passaged with No Antibiotic (Table 4)): 2 | fold-change relative to starting MIC before treatment (MPAO1 [2]; MPAO1 passaged with No Antibiotic (Table 8)): 1 | fold-change relative to starting MIC before treatment (MPAO1-ΔmutS [3]; MPAO1-ΔmutS evolved in AZ): 0.33 | fold-change relative to starting MIC before treatment (MPAO1-ΔmutS [3]; MPAO1-ΔmutS evolved in AZ + COL): 1.3 | fold-change relative to starting MIC before treatment (MPAO1-ΔmutS [3]; MPAO1-ΔmutS evolved in AZ + D-CONGA): 0.43 | fold-change relative to starting MIC before treatment (MPAO1-ΔmutS [3]; MPAO1-ΔmutS evolved in AZ + D-CONGA-Q7): 0.67 | fold-change relative to starting MIC before treatment (MPAO1-ΔmutS [3]; MPAO1-ΔmutS evolved in COL): 3 | fold-change relative to starting MIC before treatment (MPAO1-ΔmutS [3]; MPAO1-ΔmutS evolved in Chl): 1 | fold-change relative to starting MIC before treatment (MPAO1-ΔmutS [3]; MPAO1-ΔmutS evolved in D-CONGA): 2 | fold-change relative to starting MIC before treatment (MPAO1-ΔmutS [3]; MPAO1-ΔmutS evolved in D-CONGA-Q7): 3.33 | cross-resistance to antibiotics induced by treatment (MPAO1-ΔmutS [3]; [9]): failed to induce marked cross-resistance to antibiotics | cross-resistance to peptides induced by treatment (MPAO1-ΔmutS [3]; [9]): induced cross-resistance to other peptides | fold-change relative to starting MIC before treatment (MPAO1-ΔmutS [3]; MPAO1-ΔmutS passaged with No Antibiotic (Table 4)): 1 | fold-change relative to starting MIC before treatment (MPAO1-ΔmutS [3]; MPAO1-ΔmutS passaged with No Antibiotic (Table 8)): 1 | resistance acquisition on repeated exposure to the drug (MPAO1-ΔmutS [3]; MPAO1-ΔmutS, monotherapy): developed resistance | efficacy against drug-resistant clinical isolates [4]: efficacious in vitro and in vivo

[H]/N=C(/N)N[C@H]1[C@H](O)[C@@H](O)[C@H](O[C@@H]2O[C@@H](C)[C@](O)(C=O)[C@H]2O[C@@H]2O[C@@H](CO)[C@H](O)[C@@H](O)[C@@H]2NC)[C@@H](N/C(N)=N\[H])[C@@H]1O [Streptomycin]
MIC (MPAO1 [5]): 8 µg/mL (≈ 13.8 µM) | MIC (PAO1): 21 µg/mL (≈ 36.1 µM) | MIC (MPAO1-ΔmutL [6]): 43 µg/mL (≈ 73.9 µM) | MIC (MPAO1-ΔmutS [7]): 32 µg/mL (≈ 55 µM)

C[C@H]1[C@H](NC(=O)/C(=N\OC(C)(C)C(=O)O)c2csc(N)n2)C(=O)N1S(=O)(=O)O [Aztreonam]
MIC (MPAO1 [5]): 2 µg/mL (≈ 4.59 µM) | MIC (PAO1): 3 µg/mL (≈ 6.89 µM) | MIC (MPAO1-ΔmutL [6]): 30 µg/mL (≈ 68.9 µM) | MIC (MPAO1-ΔmutS [7]): 13 µg/mL (≈ 29.9 µM) | MIC (MPAO1 [2]; read-out: Average MIC at end point, MPAO1 evolved in AZ): 8 µg/mL (≈ 18.4 µM) | MIC (MPAO1 [2]; read-out: Average MIC at end point, MPAO1 evolved in AZ + COL): 19 µg/mL | MIC (MPAO1 [2]; read-out: Average MIC at end point, MPAO1 evolved in AZ + D-CONGA): 11 µg/mL | MIC (MPAO1 [2]; read-out: Average MIC at end point, MPAO1 evolved in AZ + D-CONGA-Q7): 4 µg/mL | MIC (MPAO1 [2]; read-out: Average MIC at end point, MPAO1 evolved in Chl + Str): 3 µg/mL | MIC (MPAO1 [2]; read-out: Average MIC at end point, MPAO1 evolved in D-CONGA): 7 µg/mL (≈ 16.1 µM) | MIC (MPAO1 [2]; read-out: Average MIC at end point, MPAO1 evolved in D-CONGA-Q7): 7 µg/mL (≈ 16.1 µM) | MIC (MPAO1 [2]; read-out: Average MIC at end point, MPAO1 passaged with No Antibiotic (Table 4)): 3 µg/mL (≈ 6.89 µM) | MIC (MPAO1 [2]; read-out: Average MIC at end point, MPAO1 passaged with No Antibiotic (Table 8)): 4 µg/mL (≈ 9.19 µM) | MIC (MPAO1-ΔmutL [8]; read-out: Average MIC at end point, MPAO1-ΔmutL evolved in Chl + Str): 32 µg/mL | MIC (MPAO1-ΔmutL [8]; read-out: Average MIC at end point, MPAO1-ΔmutL passaged with No Antibiotic): 11 µg/mL (≈ 25.3 µM) | MIC (MPAO1-ΔmutS [3]; read-out: Average MIC at end point, MPAO1-ΔmutS evolved in AZ): 107 µg/mL (≈ 246 µM) | MIC (MPAO1-ΔmutS [3]; read-out: Average MIC at end point, MPAO1-ΔmutS evolved in AZ + COL): 16 µg/mL | MIC (MPAO1-ΔmutS [3]; read-out: Average MIC at end point, MPAO1-ΔmutS evolved in AZ + D-CONGA): 18 µg/mL | MIC (MPAO1-ΔmutS [3]; read-out: Average MIC at end point, MPAO1-ΔmutS evolved in AZ + D-CONGA-Q7): 16 µg/mL | MIC (MPAO1-ΔmutS [3]; read-out: Average MIC at end point, MPAO1-ΔmutS evolved in Chl): 32 µg/mL (≈ 73.5 µM) | MIC (MPAO1-ΔmutS [3]; read-out: Average MIC at end point, MPAO1-ΔmutS evolved in D-CONGA): 16 µg/mL (≈ 36.7 µM) | MIC (MPAO1-ΔmutS [3]; read-out: Average MIC at end point, MPAO1-ΔmutS evolved in D-CONGA-Q7): 4 µg/mL (≈ 9.19 µM) | MIC (MPAO1-ΔmutS [3]; read-out: Average MIC at end point, MPAO1-ΔmutS passaged with No Antibiotic (Table 4)): 8 µg/mL (≈ 18.4 µM) | MIC (MPAO1-ΔmutS [3]; read-out: Average MIC at end point, MPAO1-ΔmutS passaged with No Antibiotic (Table 8)): 5 µg/mL (≈ 11.5 µM)
